From patent publication US20200375929A1, “METHODS AND COMPOSITIONS FOR THE TREATMENT OF DISEASES ASSOCIATED WITH CANCER, INFLAMMATION, OR IMMUNE RESPONSE” (Washington University, priority 2017, published 2020)
“Also recorded” adds a separate entry of the source.

Assays:
NFkB pathway = assay: Canonical NFkB signaling in LPS-stimulated BMDMs (p65 translocation, IKK, IkBa); format: cell-based, mouse
Procedure: BMDM were prepared from 6- to 12-week-old mice as described 1 and cultured in RMPI-1640 medium supplemented with 10% fetal bovine serum (FBS), 2 mM L-glutamine, and 100 U/mL penicillin-streptomycin and mouse recombinant M-CSF ([…], Peprotech). For experiments, cells were seeded at concentration 10^6 cells/mL in tissue culture plates of various formats. The cells were treated with DI (250 μM (unless stated otherwise), cat #592498, Sigma), DMF (50 μM (unless stated otherwise), cat #242926, Sigma), 3-(ethoxycarbonyl)but-3-enoic acid (3MI, 5 μM, Aris Pharmaceuticals Inc.), 4-ethoxy-2-methylene-4-oxobutanoic acid (MI, Aris Pharmaceuticals Inc.) for 12 h and activated with lipopolysaccharide (LPS; 100 ng/mL; E. coli 0111:B4, Sigma) for 1 h or as indicated. In some experiments cells were stimulated with combination of LPS (20 ng/mL) and IFN-γ (50 ng/mL; Peprotech). In some experiments cells were treated with α-tocopherol (AT, 10 μM; Sigma), MitoTEMPO (MT, 500 μM; Sigma), N-acetylcysteine (NAC, 1 mM, Sigma), ethylester of GSH (EtGSH; 1 mM, Santa Cruz) or buthionene sulfoximine (BSO, 500 μM, Sigma) alone or in combination with DI for 12 h. […]
Cells were lysed in RIPA Lysis Buffer System (Santa Cruz) and heat-denatured at 95° C. for 5 min in reducing sample buffer (BioRad). […] Non-specific binding was blocked with 5% skim milk (or 5% BSA when phospho-proteins were analyzed), and membranes were probed with primary antibodies specific to Nrf2 (#12721), HO-1 (#70081), IκBζ (mouse specific, #93726), IκBζ(#9244), ATF3 (#D2Y5W), IRAK1 (#4504; sensitivity of IRAK1 detection diminishes upon IRAK1 K63 ubiquitination), phospho-IKK (Ser176/180, #2697), p62/SQSTM1 (#5114), phospho-eIF2α (Ser51, #9721), eIF2α (#5324) from Cell Signaling; GAPDH (sc-25778), IκBα (sc-1643), ATF3 (sc-188), SDHA (sc-166909) from Santa Cruz; NQO1 (ab28947) from Abeam, followed by incubation with anti-rabbit-HRP (1:10,000; sc-2030) or anti-mouse-HRP (1:10,000; sc-2031) from Santa Cruz and Clarity western ECL substrate (Bio-Rad). […]

IκBζ = assay: Ikb-ζ protein in LPS-stimulated human monocytes (western blot); format: cell-based; conditions: human monocytes, DI 12 h, LPS 100 ng/ml
Procedure: Cells were lysed in RIPA Lysis Buffer System (Santa Cruz) and heat-denatured at 95° C. for 5 min in reducing sample buffer (BioRad). Proteins were separated on 4%-20% polyacrylamide gradient gels (BioRad) and transferred onto 0.45 μm pore size PVDF membranes (Millipore). Non-specific binding was blocked with 5% skim milk (or 5% BSA when phospho-proteins were analyzed), and membranes were probed with primary antibodies specific to Nrf2 (#12721), HO-1 (#70081), IκBζ (mouse specific, #93726), IκBζ(#9244), ATF3 (#D2Y5W), IRAK1 (#4504; sensitivity of IRAK1 detection diminishes upon IRAK1 K63 ubiquitination), phospho-IKK (Ser176/180, #2697), p62/SQSTM1 (#5114), phospho-eIF2α (Ser51, #9721), eIF2α (#5324) from Cell Signaling; GAPDH (sc-25778), IκBα (sc-1643), ATF3 (sc-188), SDHA (sc-166909) from Santa Cruz; NQO1 (ab28947) from Abeam, followed by incubation with anti-rabbit-HRP (1:10,000; sc-2030) or anti-mouse-HRP (1:10,000; sc-2031) from Santa Cruz and Clarity western ECL substrate (Bio-Rad). […]
Blood from healthy donors was acquired from LRS chambers supplied by the Mississippi Valley Regional Blood Center. […] After extensive washes to allow removal of non-adherent cells, monocytes (>95% purity) were harvested, counted and 5×10^5 cells were plated per well in 24-well plates. […]

STAT3 = STAT3 activation in IL17A-stimulated HaCat cells (western blot); format: cell-based, human; conditions: DI 12 h
human CD14+ monocytes = assay: Cytokine production in LPS-stimulated human monocytes (ELISA); format: cell-based; conditions: DI 12 h, LPS 24 h
Procedure: Cytokines in cell supernatants were analyzed using DuoSet® ELISA kits according to manufacturer protocol (R&D Systems). The supernatants from BMDMs were diluted 1:4, from human blood monocytes 1:3.
Blood from healthy donors was acquired from LRS chambers supplied by the Mississippi Valley Regional Blood Center. Peripheral blood mononuclear cells (PBMCs) from buffy coats were recovered from the Ficoll interface after a 400 g centrifugation for 30 min. Monocytes were isolated by adherence on a cell culture dish for 1 h at 37° C. and 5% C02 in RPMI containing 1% Human Serum Albumin (Albutein, Grifols, Spain). After extensive washes to allow removal of non-adherent cells, monocytes (>95% purity) were harvested, counted and 5×10^5 cells were plated per well in 24-well plates. The cells were treated with DI (125 μM if not stated otherwise) for 12 h and stimulated with LPS (100 ng/mL) for 1 h or as indicated. In some experiments cells were treated with DI in presence of EtGSH (1 mM, Santa Cruz).

## C=C(CC(=O)OC)C(=O)OC [DI, dimethyl itaconate]
NFkB pathway; BMDMs, DI 250 μM 12 h, LPS
  p65 nuclear translocation upon LPS: does not inhibit nuclear translocation of p65; also recorded: nor did it prevent LPS-mediated p65 nuclear translocation
NFkB pathway; BMDMs, DI, LPS
  IκBα degradation in response to LPS: did not inhibit IκBα degradation
NFkB pathway; DI at concentrations effective to inhibit IL6, p65 translocation, IKK activation, IkBa degradation
  canonical NFkB response: not affected
IκBζ
  LPS-induced Ikb-ζ protein levels: decreased Ikb-ζ protein levels; also recorded: completely abolished
STAT3
  STAT3 activation: effective to inhibit STAT3 activation
Human CD14+ monocytes
  LPS-induced cytokine production: inhibition of cytokine production
